Laboratory results published in patent US20070110716A1, “Relationship of a specific metabolite to insulin resistance” (priority 2003, published 2007).

Assays:
Akt = test: Insulin-stimulated phosphorylation of Akt in L6 myotubes exposed to high FA; type: cell-based, rat; details: 24 h exposure to high FA
Experimental: The model predicts that the development of insulin resistance requires FA uptake into muscle mitochondria and subsequent β-oxidation. To test this model, signaling experiments were performed in which mitochondrial FA metabolism was inhibited by carnitine deficiency or etomoxir.

L6 myocytes = test: Acylcarnitine and ketone accumulation in L6 myocytes exposed to high FA; type: cell-based, rat; details: co-administration
Experimental: Cell culture. Early passages of rat L6 myoblasts (ATCC CRL-1458) from the American Tissue Culture Collection (Rockville, Md.) were grown in Dulbecco's Modified Eagle Medium (DMEM) with 10% Fetal Bovine Serum, 4.0 mM glutamine, and […] gentamycin, in a humidified incubator at 37° C., 5% CO2. Myoblasts were grown on 100 mm dishes to 50-60% confluence and then subcultured onto 6 and 24-well collagen-coated plates for experiments. When cells were 70% confluent, they were induced to differentiate into myotubes by changing to low-serum DFM (DMEM, 2% horse-serum, 4.0 mM glutamine, […] gentamycin). […]
Substrate Metabolism. […] Briefly, the production of [^14C]-labeled [^14C]CO2 (complete oxidation) was measured and where appropriate, [^14C]-labeled ASM, a measure of TCA cycle intermediates and acylcarnitine esters and ketones (incomplete oxidation) was measured, using a modified 48-well microtiter plate (Kim, et al. (2002) Am. J. Physiol. Endocrinol. Metab. 282:E1014-El022). […] Radioactivity was determined by scintillation counting. […] Rates of ketone production were determined by treating media and tissue lysates with sodium borodeuteride, thereby producing ketoacids labeled with deuterium. Trimethylsilyated extracts spiked with internal standards were analyzed by GC/MS, permitting determination of βHB and AcAc in a single analysis. […]

SMILES: C[N+](C)(C)CC(O)CC(=O)[O-] (stereo not drawn) [carnitine]
- Lipid-induced insulin resistance (insulin-stimulated phosphorylation of Akt) (Akt): exacerbated lipid-induced insulin resistance in a dose-dependent manner

SMILES: CCOC(=O)[C@@]1(CCCCCCOc2ccc(Cl)cc2)CO1 [etomoxir]
- Accumulation of lipid metabolites (acylcarnitines, βHB-carnitine, free ketones, C2) (L6 myocytes): prevented
- Lipid-induced insulin resistance (insulin-stimulated phosphorylation of Akt) (Akt): at least partly protected
